# Organism: Rattus norvegicus
# Test: DrugMatrix - Regimen: Daily Repeat
# Format: toxicity, organism-based, Sprague-Dawley
# Set-up: regimen Daily Repeat, gender Male, age 6-8 weeks
# Settings: in vivo, po, route oral GAVAGE, […]; for ABSOLUTE BASOPHIL / ABSOLUTE EOSINOPHIL / ABSOLUTE LYMPHOCYTE / ABSOLUTE MONOCYTE / ABSOLUTE SEGMENTED NEUTROPHIL / BASOPHIL / EOSINOPHIL / ERYTHROCYTE COUNT / HEMATOCRIT / HEMOGLOBIN / LEUKOCYTE COUNT / LYMPHOCYTE / MEAN CORPUSCULAR HEMOGLOBIN / MEAN CORPUSCULAR HEMOGLOBIN CONCENTRATION / MEAN CORPUSCULAR VOLUME / MONOCYTE / NEUTROPHIL / NUCLEATED RED BLOOD CELLS / PLATELET COUNT: tissue Blood; for ALANINE AMINOTRANSFERASE / ALKALINE PHOSPHATASE / ASPARTATE AMINOTRANSFERASE / BLOOD UREA NITROGEN / CARBON DIOXIDE / CHLORIDE / CHOLESTEROL / CREATINE PHOSPHOKINASE / CREATININE / GLUCOSE / LACTATE DEHYDROGENASE / LIPASE / PHOSPHORUS / POTASSIUM / SODIUM / TOTAL BILIRUBIN / TOTAL PROTEIN / URIC ACID: tissue Plasma
# [1] = 0 mg/kg, 72 h, dose level Control, time 3 day
# [2] = 0 mg/kg, 120 h, dose level Control, time 5 day
# [3] = 10 mg/kg, 72 h, dose level Low, time 3 day
compound,measurement,setting,value
CCOC(=O)C1=C(C)NC(C)=C(C(=O)OC)C1c1cccc([N+](=O)[O-])c1 (stereo not given) [NITRENDIPINE],ABSOLUTE BASOPHIL,[1],0 CELLS/uL
same,ABSOLUTE EOSINOPHIL,[1],0 CELLS/uL
same,ABSOLUTE LYMPHOCYTE,[1],9244.83 CELLS/uL
same,ABSOLUTE MONOCYTE,[1],102 CELLS/uL
same,ABSOLUTE SEGMENTED NEUTROPHIL,[1],869.83 CELLS/uL
same,BASOPHIL,[1],0%
same,EOSINOPHIL,[1],0%
same,ERYTHROCYTE COUNT,[1],5.43 x10E6/uL
same,HEMATOCRIT,[1],34.03%
same,HEMOGLOBIN,[1],13.27 G/DL
same,LEUKOCYTE COUNT,[1],10.22 x10E3/uL
same,LYMPHOCYTE,[1],90.33%
same,MEAN CORPUSCULAR HEMOGLOBIN,[1],24.48 pg
same,MEAN CORPUSCULAR HEMOGLOBIN CONCENTRATION,[1],39.03 G/DL
same,MEAN CORPUSCULAR VOLUME,[1],62.75 fL
same,MONOCYTE,[1],1%
same,NEUTROPHIL,[1],8.67%
same,NUCLEATED RED BLOOD CELLS,[1],0.17 /100WBC
same,PLATELET COUNT,[1],989 x10E3/uL
same,ALANINE AMINOTRANSFERASE,[1],77 u/L
same,ALKALINE PHOSPHATASE,[1],464.83 u/L
same,ASPARTATE AMINOTRANSFERASE,[1],89.83 u/L
same,BLOOD UREA NITROGEN,[1],12.17 mg/dL
same,CARBON DIOXIDE,[1],34.17 mmol/L
same,CHLORIDE,[1],98.33 MEQ/L
same,CHOLESTEROL,[1],75.17 mg/dL
same,CREATINE PHOSPHOKINASE,[1],367.67 u/L
same,CREATININE,[1],0.16 mg/dL
same,GLUCOSE,[1],142.67 mg/dL
same,LACTATE DEHYDROGENASE,[1],139.33 u/L
same,LIPASE,[1],9.5 u/L
same,PHOSPHORUS,[1],10.85 mg/dL
same,POTASSIUM,[1],6.38 MEQ/L
same,SODIUM,[1],143.2 MEQ/L
same,TOTAL BILIRUBIN,[1],0.2 mg/dL
same,TOTAL PROTEIN,[1],5.77 G/DL
same,URIC ACID,[1],0.7 mg/dL
same,ABSOLUTE BASOPHIL,[2],0 CELLS/uL
same,ABSOLUTE EOSINOPHIL,[2],0 CELLS/uL
same,ABSOLUTE LYMPHOCYTE,[2],8295.33 CELLS/uL
same,ABSOLUTE MONOCYTE,[2],84.67 CELLS/uL
same,ABSOLUTE SEGMENTED NEUTROPHIL,[2],970 CELLS/uL
same,BASOPHIL,[2],0%
same,EOSINOPHIL,[2],0%
same,ERYTHROCYTE COUNT,[2],5.74 x10E6/uL
same,HEMATOCRIT,[2],36.22%
same,HEMOGLOBIN,[2],13.85 G/DL
same,LEUKOCYTE COUNT,[2],9.35 x10E3/uL
same,LYMPHOCYTE,[2],88.67%
same,MEAN CORPUSCULAR HEMOGLOBIN,[2],24.13 pg
same,MEAN CORPUSCULAR HEMOGLOBIN CONCENTRATION,[2],38.25 G/DL
same,MEAN CORPUSCULAR VOLUME,[2],63.08 fL
same,MONOCYTE,[2],1%
same,NEUTROPHIL,[2],10.33%
same,NUCLEATED RED BLOOD CELLS,[2],0.17 /100WBC
same,PLATELET COUNT,[2],883.83 x10E3/uL
same,ALANINE AMINOTRANSFERASE,[2],64.5 u/L
same,ALKALINE PHOSPHATASE,[2],425.67 u/L
same,ASPARTATE AMINOTRANSFERASE,[2],88.5 u/L
same,BLOOD UREA NITROGEN,[2],14.17 mg/dL
same,CARBON DIOXIDE,[2],30.5 mmol/L
same,CHLORIDE,[2],100.33 MEQ/L
same,CHOLESTEROL,[2],55.33 mg/dL
same,CREATINE PHOSPHOKINASE,[2],287.17 u/L
same,CREATININE,[2],0.2 mg/dL
same,GLUCOSE,[2],162.83 mg/dL
same,LACTATE DEHYDROGENASE,[2],111.33 u/L
same,LIPASE,[2],10.5 u/L
same,PHOSPHORUS,[2],10.32 mg/dL
same,POTASSIUM,[2],5.13 MEQ/L
same,SODIUM,[2],143.93 MEQ/L
same,TOTAL BILIRUBIN,[2],0.17 mg/dL
same,TOTAL PROTEIN,[2],5.9 G/DL
same,URIC ACID,[2],0.77 mg/dL
same,ABSOLUTE BASOPHIL,[3],0 CELLS/uL
same,ABSOLUTE EOSINOPHIL,[3],0 CELLS/uL
same,ABSOLUTE LYMPHOCYTE,[3],9214.67 CELLS/uL
same,ABSOLUTE MONOCYTE,[3],145.33 CELLS/uL
same,ABSOLUTE SEGMENTED NEUTROPHIL,[3],940 CELLS/uL
same,BASOPHIL,[3],0%
same,EOSINOPHIL,[3],0%
same,ERYTHROCYTE COUNT,[3],5.43 x10E6/uL
same,HEMATOCRIT,[3],33.93%
same,HEMOGLOBIN,[3],13.03 G/DL
same,LEUKOCYTE COUNT,[3],10.3 x10E3/uL
same,LYMPHOCYTE,[3],89.33%
same,MEAN CORPUSCULAR HEMOGLOBIN,[3],24.03 pg
same,MEAN CORPUSCULAR HEMOGLOBIN CONCENTRATION,[3],38.4 G/DL
same,MEAN CORPUSCULAR VOLUME,[3],62.6 fL
same,MONOCYTE,[3],1.33%
same,NEUTROPHIL,[3],9.33%
same,NUCLEATED RED BLOOD CELLS,[3],0 /100WBC
same,PLATELET COUNT,[3],1124 x10E3/uL
same,ALANINE AMINOTRANSFERASE,[3],72 u/L
same,ALKALINE PHOSPHATASE,[3],422 u/L
same,ASPARTATE AMINOTRANSFERASE,[3],86 u/L
same,BLOOD UREA NITROGEN,[3],10.33 mg/dL
same,CARBON DIOXIDE,[3],34.33 mmol/L
same,CHLORIDE,[3],98.67 MEQ/L
same,CHOLESTEROL,[3],71.67 mg/dL
same,CREATINE PHOSPHOKINASE,[3],319.33 u/L
same,CREATININE,[3],0.11 mg/dL
same,GLUCOSE,[3],145.33 mg/dL
same,LACTATE DEHYDROGENASE,[3],130.67 u/L
same,LIPASE,[3],11.33 u/L
same,PHOSPHORUS,[3],10.8 mg/dL
same,POTASSIUM,[3],6.13 MEQ/L
same,SODIUM,[3],144.4 MEQ/L
same,TOTAL BILIRUBIN,[3],0.2 mg/dL
same,TOTAL PROTEIN,[3],5.6 G/DL
